Source: patent US20240115569A1, “METHODS FOR BLOCKING HER2 SIGNALING FOR TREATING PULMONARY FIBROSIS” (CEDARS-SINAI MEDICAL CENTER, priority 2021, published 2024)

Assays:
human lung fibroblasts [1] = test: Fibroblast migration assay (BioCoat control insert); assay type: cell-based; conditions: 24 hours, PDGF-BB chemoattractant
Protocol: (§1) Fibroblast migration and invasion assays were performed as previously described (Geng et al., 2019; L1 et al., 2011). In brief, fibroblasts were loaded into the top chamber of a Corning BioCoat Control cell culture insert containing a polycarbonate membrane with 8.0 µm pores (for migration) or a BioCoat Matrigel Invasion Chamber (BD Sciences; for invasion). All other settings were the same for the cell migration assay as for the cell invasion assay.
(§2) PDGF-BB (10 ng/ml, Peprotech) was used as a chemoattractant in the bottom chamber. After 24 hours culture at 37° C. with 5% CO2, invasive cells that had passed through the matrigel layer and clung to the bottom of the insert membrane were determined as invasive fibroblasts. Cells remaining in the upper chamber were defined as non-invasive fibroblasts. For quantification of the migration and invasion indices, the membrane filters containing cells were fixed and stained with the Protocol Hema 3 stain set (Thermo Fisher Scientific) and counted in 5 randomly chosen fields per filter from triplicate filters per sample at ×40 magnification. […] The cell migration or the cell invasion index was calculated as the number of cells attached to the bottom of control or Matrigel-coated membranes after 24 hours, normalized to respective control lung fibroblasts.

[2] = test system: NSG mice injected with SEMA7A high IPF fibroblasts; test: Humanized SCID mouse model of IPF; assay type: in vivo; conditions: assessed on day 63
Protocol: Humanized SCID mouse model of IPF was generated as previously reported (Trujillo et al., 2010). Female NOD-scid-IL2Rγc−/− (NSG) mice (6 to 8 weeks old) were purchased from the Jackson Laboratory. The NSG mice received single-cell preparations of SEMA7A high and negative IPF lung fibroblasts (0.5×10^6 cells/mouse) via tail vein injection. […] For the anti-ERBB2 antibody studies, mice were injected with IgG1 (InVivoPlus human IgG1 isotype control, Bio X Cell) or anti-HER2 (Pertuzumab, kindly provided by Genentech) twice per week, 100 μg/mouse from day 35 to 63. Lung fibrosis was assessed on day 63 after fibroblast transfer. The left lobe was used for histology and right lobes were used for hydroxyproline assay after right ventricle perfusion to clear the blood in lungs.

human lung fibroblasts [3] = test: Fibroblast invasion assay (BioCoat Matrigel Invasion Chamber); assay type: cell-based; conditions: 24 hours, PDGF-BB chemoattractant
Protocol: as §1, §2

IPF = IPF patients; cited from earlier work
IPF lung fibroblasts = test: qRT-PCR of genes specific to invasive or non-invasive fibroblasts; assay type: cell-based, human; conditions: IPF lung fibroblasts after Lapatinib treatment
Protocol: Small interfering RNA (siRNA) knockdown assays were performed using Lipofectamin RNAiMAX Transfection Reagent following the manufacturer's protocol (Thermo Fisher Scientific). Commercial si-RNA used were listed: si-FOXF1 (Santa Cruz Biotechnology, sc-60655), si-CREBRF (Santa Cruz Biotechnology, sc-91839), si-TSC22D1 (Thermo Fisher Scientific, 16708), si-MXI1 (Santa Cruz Biotechnology, sc-35835), si-KLF9 (Santa Cruz Biotechnology, sc-37716), si-NFE2L2 (Santa Cruz Biotechnology, sc-37030), si-HMGA2 (Santa Cruz Biotechnology, sc-37994) si-DPF3 (Santa Cruz Biotechnology, sc-92150) and si-LIN00152 (Dharmacon, SMARTpool: Lincode CYTOR siRNA). Si-FENDRR were synthesized by Integrated DNA Technologies (IDT) (Table 1). RNA was isolated using RNeasy Mini kit (QIAGEN) following the manufacturer's protocol. […] Reverse Transcriptase (Progema) was used for cDNA synthesis. Gene expression was measured relative to the endogenous reference gene GAPDH using the comparative ACT method. The primer sequences used were listed (Table 1).

C57BL/6J mice = test: Bleomycin-induced lung fibrosis; assay type: in vivo, mouse; conditions: 1.25 U/kg bleomycin intratracheal; gavaged every day; 21 days; vs vehicle; trichrome and hydroxyproline
From the text: Control animals received saline alone. The tracheostomy site was sutured, and the animals were allowed to recover. […] Mice were euthanized 21 days after bleomycin treatment, and lung tissues were collected for experiments.

SEMA7A = test: Western blot of SEMA7A in IPF lung fibroblasts; assay type: cell-based, human; conditions: increasing concentration
fibroblasts = test: Calcein AM cell viability assay; assay type: cell-based, human; conditions: Lapatinib treated cells for 24 hours
Protocol: Cell growth rate of si-CTL and si-FENDRR fibroblasts were measured by IncuCyte ZOOM Live Cell Analysis System (Essen BioScience). The viability of lapatinib-treated fibroblasts or control fibroblasts was examined by Calcein AM Cell Viability Assay Kit (Trevigen).

FOXF1 = test: Western blot of FOXF1 in IPF lung fibroblasts; assay type: cell-based, human; conditions: increasing concentration
SEMA7A, F3, and ITGA6 = test: Flow cytometry of cell surface markers of invasive fibroblasts; assay type: cell-based, human; conditions: IPF lung fibroblasts after Lapatinib treatment
Protocol: Briefly, cells were resuspended in Hank's balanced saline solution supplemented with 2% FBS, 10 mM […] , 0.1 mM EDTA, Antibiotic-Antimycotic. […] 4',6-diamidino-2-phenylindole (DA-PI) was used to discriminate dead cells.

[4] = different doses of Lapatinib or DMSO

With “Pertuzumab: humanized monoclonal antibody that binds to the extracellular domain II of HER2” the fibroblast migration (human lung fibroblasts [1]; Pertuzumab or IgG1) was “significantly reduced fibroblast migration and invasion”, the lung fibrosis ([2]; 100 μg/mouse twice per week from day 35 to 63, vs IgG1) was “significantly decreased lung fibrosis” and the fibroblast invasion (human lung fibroblasts [3]; Pertuzumab or IgG1) was “significantly reduced fibroblast migration and invasion”.
For `COC(=O)c1ccc2c(c1)NC(=O)/C2=C(\Nc1ccc(N(C)C(=O)CN2CCN(C)CC2)cc1)c1ccccc1` [nintedanib], the “lung function / fibrosis” value (IPF) is given as “neither of these agents improves lung function or reduces fibrosis” and the “rate of decline in the forced vital capacity” value (IPF) is given as “reduce the rate of decline in the forced vital capacity”.
For `CS(=O)(=O)CCNCc1ccc(-c2ccc3ncnc(Nc4ccc(OCc5cccc(F)c5)c(Cl)c4)c3c2)o1` [Lapatinib], the fibroblast migration (human lung fibroblasts [1]; [4]) was “inhibited fibroblast migration and invasion in a dose dependent manner”, the lung fibrosis ([2]; 50 mg/kg every other day from day 35 to day 63, vs vehicle, trichrome and hydroxyproline) was “significantly decreased lung fibrosis” and the “RNA levels of other representative genes specific to invasive or non-invasive fibroblasts” value (IPF lung fibroblasts) was “reversed to a non-invasive state”. For the same compound, the bleomycin-induced lung fibrosis (C57BL/6J mice) was “blunted bleomycin-induced lung fibrosis”, the “total protein levels of SEMA7A” value (SEMA7A) was “decreased” and the fibroblast viability (fibroblasts) was “no effect on fibroblast viability”. For the same compound, the “total protein levels of FOXF1” value (FOXF1) was “increased”, the fibroblast invasion (human lung fibroblasts [3]; [4]) was “inhibited fibroblast migration and invasion in a dose dependent manner” and the “cell surface expression of SEMA7A, F3, and ITGA6” value (SEMA7A, F3, and ITGA6) was “decreased protein levels”.
In the case of `Cc1ccc(=O)n(-c2ccccc2)c1` [pirfenidone], the “lung function / fibrosis” value (IPF) is listed as “neither of these agents improves lung function or reduces fibrosis” and the “rate of decline in the forced vital capacity” value (IPF) is listed as “reduce the rate of decline in the forced vital capacity”.
